Test results published in ChEMBL document CHEMBL1201862, “PubChem BioAssay data set” (2004).
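Cultured in 96-well plates, cells were exposed to test compound for 48 hours across five concentrations. GI50: concentration for 50% inhibition of growth.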 Activity calls are given as the source filed them. No stated cut-off is given here; in the data, active = GI50 up to about 1.1 µM and inactive = higher.

Legend:
Test in all cases: DTP human tumour cell line panel, 48 h
U-251 = tested on: U-251
LOX IMVI = tested on: LOX IMVI
SF-268 = tested on: SF-268
UO-31 = tested on: UO-31
HOP-62 = tested on: HOP-62
KM12 = tested on: KM12
TK-10 = tested on: TK-10
Malme-3M = tested on: Malme-3M
K562 = tested on: K562
HOP-92 = tested on: HOP-92
COLO 205 = tested on: COLO 205
SK-MEL-2 = tested on: SK-MEL-2
SR = tested on: SR
786-0 = tested on: 786-0
CCRF-CEM = tested on: CCRF-CEM
OVCAR-5 = tested on: OVCAR-5
SNB-75 = tested on: SNB-75

Measured: GI50

CCOc1ccccc1NC(=O)CC(C(=O)OC)C(=O)C(=O)OC (centres undefined)
inactive: U-251 > 100 µM | LOX IMVI > 100 µM | SF-268 > 100 µM | UO-31 > 100 µM | HOP-62 > 100 µM | KM12 > 100 µM | TK-10 > 100 µM | Malme-3M > 100 µM | K562 > 100 µM | HOP-92 > 100 µM | COLO 205 > 100 µM | SK-MEL-2 > 100 µM | SR > 100 µM | 786-0 > 100 µM | CCRF-CEM > 100 µM | OVCAR-5 > 100 µM

CCCCCCCCCCCCOC(=S)NC
inactive: U-251 18.3 µM | LOX IMVI 14.1 µM | SF-268 20.2 µM | UO-31 19 µM | HOP-62 22.2 µM | KM12 14.3 µM | TK-10 12.8 µM | Malme-3M 21.6 µM | K562 19.6 µM | SNB-75 29.9 µM | HOP-92 15.5 µM | SK-MEL-2 14.6 µM | SR 14.1 µM | 786-0 19 µM | CCRF-CEM 33.4 µM | OVCAR-5 12.6 µM

COC1C=C(Nc2cccc(Cl)c2)C(=O)C1 (centres undefined)
inactive: U-251 32.3 µM | LOX IMVI > 100 µM | SF-268 45.8 µM | UO-31 41.2 µM | HOP-62 > 100 µM | KM12 71 µM | TK-10 > 100 µM | Malme-3M > 100 µM | K562 41.6 µM | SNB-75 43.9 µM | HOP-92 39.5 µM | COLO 205 10.4 µM | SK-MEL-2 71 µM | SR 58.3 µM | 786-0 > 100 µM | CCRF-CEM 63.1 µM | OVCAR-5 47.4 µM

CC(=O)Nc1ccc(/C=c2\sc3nnc(CCC(=O)Nc4ccccc4Cl)n3c2=O)cc1
inactive: U-251 17.9 µM | LOX IMVI 17.2 µM | SF-268 26.4 µM | UO-31 > 100 µM | HOP-62 54 µM | KM12 20.9 µM | TK-10 37.8 µM | Malme-3M 38.8 µM | K562 24.2 µM | HOP-92 27.4 µM | SK-MEL-2 31.9 µM | SR 20.3 µM | 786-0 21.8 µM | CCRF-CEM 18.3 µM | OVCAR-5 > 100 µM

COc1cc2c(cc1OC)C1[C@@H](c3ccccc3)OCN1CC2 (some centres undefined)
inactive: U-251 > 100 µM | LOX IMVI > 96.2 µM | SF-268 > 100 µM | UO-31 > 100 µM | HOP-62 > 100 µM | KM12 > 100 µM | TK-10 > 100 µM | Malme-3M > 100 µM | K562 > 63.1 µM | SNB-75 60.8 µM | HOP-92 83.4 µM | COLO 205 91.2 µM | SK-MEL-2 > 100 µM | SR > 88.7 µM | 786-0 > 100 µM | CCRF-CEM > 77.6 µM | OVCAR-5 > 100 µM

Cc1cccc2c3ccc4c(c3n(C)c12)C(=O)C=CC4=O
inactive: SF-268 > 100 µM | UO-31 28.9 µM | HOP-62 > 100 µM | KM12 > 100 µM | TK-10 > 100 µM | Malme-3M > 100 µM | K562 > 100 µM | SNB-75 > 100 µM | HOP-92 > 100 µM | COLO 205 > 100 µM | SK-MEL-2 > 100 µM | SR 29.3 µM | 786-0 > 100 µM | CCRF-CEM 18.2 µM

O=C1CC23CCCCCCCCCCC2(C1)CC(=O)C3 (centres undefined)
inactive: U-251 22.8 µM | SF-268 51.9 µM | UO-31 20.8 µM | KM12 21.3 µM | TK-10 38.5 µM | Malme-3M 24.6 µM | K562 27.5 µM | HOP-92 21.1 µM | COLO 205 18.4 µM | SK-MEL-2 19.5 µM | SR 19.9 µM | 786-0 32.6 µM | CCRF-CEM 18.9 µM | OVCAR-5 23.2 µM
